Some test systems named below: SNB-19 CNS; SF-295 CNS; HT29 colon; MCF7 breast; MDA-N; DU-145 prostate; NCI-H522 lung; TK-10 renal; UACC-62 melanoma; HL-60(TB) leukemia.
What all share (assay): growth of human tumour cells (NCI), 48 h

Where “and” joins values, the source holds several entries; their conditions need not be identical. Identical values can stand only once.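 Tested at 5 concentrations; 48 h exposure; 96-well plates; endpoints linearly interpolated, else capped at highest concentration. The concentration for 50% growth inhibition is given as GI50. TGI marks complete inhibition of growth.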 A value given as a limit tells only on which side of the number the result lay.

For the compound `CCn1c(-c2ccc(N=NNc3ccc(-c4n[nH]c(=S)n4CC)cc3)cc2)n[nH]c1=S`, the TGI in the assay with SNB-19 CNS is 9.53 µM; with SF-295 CNS it was 7.1 µM; in the assay with HT29 colon, over 100 µM; in the assay with MCF7 breast it was 29.2 µM; in the assay with MDA-N, over 100 µM; in the assay with DU-145 prostate it was 8.17 µM. Further, the figures for the TGI in the assay on NCI-H522 lung and with TK-10 renal were 5.71 µM and over 100 µM, respectively.

As for `O=C(O)C1C2CCC(O2)C1C(=O)Nc1cccc2cccnc12` (stereo unspecified), the TGI with UACC-62 melanoma, in the assay with SNB-19 CNS, in the assay with SF-295 CNS, in the assay on HT29 colon, in the assay on MCF7 breast and in the assay with MDA-N was over 100 µM each time. The TGI in the assay with DU-145 prostate, in the assay on NCI-H522 lung and in the assay with TK-10 renal was over 100 µM in each case.

For the compound `O=C(C[n+]1ccc2ccccc2c1)c1ccc2ccc3ccccc3c2c1`, the TGI with UACC-62 melanoma is 9.72 µM; in the assay with SNB-19 CNS, 18.7 µM; in the assay on SF-295 CNS it was 16.4 µM; in the assay on HT29 colon it was 12.2 µM; in the assay on MCF7 breast it was 11.3 µM; with MDA-N it was 10.8 µM. For the same compound, the values for the TGI in the assay with DU-145 prostate, in the assay with NCI-H522 lung and in the assay with TK-10 renal were 21.3 µM, 21.8 µM and 8.74 µM, respectively.

Consider `CC1CC[C@@]2(OC1)OC1C[C@H]3[C@@H]4CC=C5CC(OC6OC(CO)C(OC7OC(CO)C(O)C(OC8OCC(O)C(O)C8O)C7OC7OC(CO)C(O)C(O)C7O)C(O)C6O)CCC5(C)[C@H]4CCC3(C)C1[C@@H]2C` (stereo partly specified), for which the TGI in the assay with UACC-62 melanoma is over 25 µM; in the assay on SNB-19 CNS, over 25 µM; in the assay with HL-60(TB) leukemia it was 9.35 µM; in the assay on SF-295 CNS, 21.2 µM; in the assay on HT29 colon it was 9.4 µM; in the assay on MCF7 breast it was 14.6 µM. The TGI with DU-145 prostate was determined as 9.48 µM; with NCI-H522 lung, 9.69 µM; in the assay on TK-10 renal, 20.2 µM.

For the compound `O=C(/C=C/c1ccccc1)NNC(=O)c1c(Cl)c(Cl)c(Cl)c(Cl)c1-c1nc2ccccc2[nH]1`, the TGI was over 100 µM in the assay with UACC-62 melanoma; 50.7 µM with HL-60(TB) leukemia; over 100 µM in the assay with SF-295 CNS; over 100 µM in the assay with HT29 colon; over 100 µM in the assay with MCF7 breast; 45.4 µM with MDA-N. Besides, the TGI in the assay with DU-145 prostate is over 100 µM; with NCI-H522 lung, 63.4 µM.

For `Nc1nc(SCCc2ccccc2)nc2nc3c(c(-c4ccccc4)c12)CCCC3`, the TGI with UACC-62 melanoma, in the assay with SNB-19 CNS, in the assay with HL-60(TB) leukemia, in the assay with SF-295 CNS, in the assay with HT29 colon and in the assay with MCF7 breast was over 100 µM each time. The TGI in the assay with MDA-N, in the assay with DU-145 prostate and in the assay on TK-10 renal was over 100 µM in each case.

Consider `CC(=O)C1=C(C)N(c2ccc(C)cc2)C2(O)C=CC(=O)C3C(=O)N(c4ccccc4)C(=O)C132` (stereo unspecified), for which the TGI was determined as 35.6 µM in the assay on UACC-62 melanoma; 65.6 µM with SNB-19 CNS; 18.4 µM in the assay on HL-60(TB) leukemia; 43.7 µM with SF-295 CNS; 44.8 µM with HT29 colon; 53.7 µM with MCF7 breast. For the same compound, the values for the TGI in the assay on DU-145 prostate, in the assay with NCI-H522 lung and with TK-10 renal were 74.3 µM, 22 µM and 40.3 µM, respectively.

As to `COc1ccc(C(=O)/C=C/c2cccc([N+](=O)[O-])c2)c(OC)c1`, the GI50 in the assay on UACC-62 melanoma is 1.14 µM; with SNB-19 CNS, 1.46 µM; with SF-295 CNS, 2.39 µM; in the assay with MCF7 breast it was 1.37 µM; in the assay on DU-145 prostate, 1.75 µM; in the assay with NCI-H522 lung, 1.6 µM. Besides, in the assay on TK-10 renal, the GI50 was 1.59 µM. Further, the TGI with UACC-62 melanoma is 2.79 µM; in the assay with SNB-19 CNS it was 4.37 µM; with SF-295 CNS, over 50 µM; with MCF7 breast, over 50 µM; in the assay with DU-145 prostate, over 50 µM; with NCI-H522 lung, over 50 µM. The compound also displayed a TGI with TK-10 renal of over 50 µM.

`COc1nc(C#CC2(O)CCCCC2)nc(OC)n1`: the TGI with UACC-62 melanoma was 20.2 µM; in the assay on SNB-19 CNS, over 100 µM; in the assay on HL-60(TB) leukemia it was 16.3 µM; in the assay with SF-295 CNS, 60.4 µM; with HT29 colon, 45.4 µM; in the assay with MCF7 breast it was 19.4 µM. In addition, the TGI in the assay on MDA-N stood at 26.3 µM; in the assay with DU-145 prostate, 19.6 µM; in the assay with NCI-H522 lung, 21.9 µM.

As to `CCCCCCCCC/C=C/C=C/C(=O)NCC(=O)NC1C(O)C(O)C(Nc2ncnc3nc[nH]c23)OC1C(O)CO` (stereo unspecified), the TGI was 0.0171 µM in the assay on UACC-62 melanoma; 1.08 µM and 8.98 µM with SF-295 CNS; 0.349 µM and 0.117 µM with HT29 colon; 1.21 µM with MDA-N; 0.0758 µM and 0.277 µM in the assay on NCI-H522 lung; 1.71 µM in the assay on TK-10 renal. The GI50 in the assay with SF-295 CNS was 0.0441 µM; in the assay on HT29 colon, 0.000103 µM; in the assay on DU-145 prostate it was 0.00477 µM; with NCI-H522 lung it was 0.00453 µM.

Take `CN(C)CC(CC1=C(CC(CN(C)C)N(C)C)CCC1)N(C)C` (stereo unspecified): the TGI in the assay with UACC-62 melanoma, in the assay on SNB-19 CNS, in the assay with HL-60(TB) leukemia, in the assay on SF-295 CNS, in the assay on HT29 colon and in the assay on MCF7 breast was over 100 µM each time. This compound showed a TGI in the assay with NCI-H522 lung of over 100 µM.

For `NC(=O)c1c(NC(=O)c2ccccn2)sc2c1CCC(=O)C2`, the GI50 was 2.52 µM with UACC-62 melanoma; 3.45 µM in the assay on SNB-19 CNS; 2.37 µM in the assay on MCF7 breast; over 100 µM in the assay with DU-145 prostate; 0.821 µM in the assay on NCI-H522 lung; 5 µM with TK-10 renal. Further, the TGI with UACC-62 melanoma was 67.1 µM; in the assay with SNB-19 CNS, over 100 µM; in the assay with MCF7 breast it was over 100 µM; in the assay with DU-145 prostate it was over 100 µM; in the assay with NCI-H522 lung, 8.65 µM; with TK-10 renal it was over 100 µM.

In the case of `CCN(CC(=O)O)C(=O)c1cccnc1`, the TGI in the assay with UACC-62 melanoma, in the assay with SNB-19 CNS, in the assay with SF-295 CNS, in the assay on HT29 colon, in the assay on MDA-N and with DU-145 prostate was over 100 µM each time. Also, the TGI with NCI-H522 lung and in the assay on TK-10 renal was over 100 µM in each case.
